Experimental data: PMC5482218 (Archiv der Pharmazie, 2016)
Values belong to the compound of their own block, whether it stands above or below them.

How the values were obtained:
[1] = system: L-type calcium channels (LTCC); experiment: High-throughput fluorescence Ca2+ flux assay; conditions: for IC50: read-out: IC50 for the inhibition of K+-induced Ca2+ influx, PC12 cells loaded with Fura-2/AM, 10 min preincubation, depolarization with 50 mM KCl; for Dose-response profile / effect on K+-induced Ca2+ influx: PC12 cells, Fura-2/AM, 50 mM KCl
[2] = system: PC12 cells; experiment: LDH release cell viability assay, with and without 200 μM H2O2; type: cell-based, rat; conditions: for Attenuation of H2O2-induced LDH release: 200 μM H2O2 24 h, p<0.05; for LDH release by compound alone (inherent toxicity): absence of H2O2, 100 μM, PC12 cells
[3] = system: PC12 cells

Compound: OC12C3C4CC5C6C4C1C6C(C53)N2Cc1ccccc1 (stereo not drawn) [Compound 8a, N-Benzyl-3-hydroxy-4-azahexacyclo[5.4.1.0^2,6.0^3,10.0^5,9. 0^8,11]dodecane]
IC50 [1]: 35 µM

IC50 [1]: 68 µM
Compound: N-Cyclohexylmethyl-3,11-azatricyclo[6.3.0.0^2,6]undecane [Compound 14d]

IC50 [1]: 11 µM
Compound: COc1cccc(CN2C3CCC4CC5CCC2C5C43)c1 (stereo not drawn) [Compound 14e, N-(3-Methoxybenzyl)-3,11-azatricyclo[6.3.0.0^2,6]undecane]

IC50 [1]: 74 µM
Compound: N-Benzyl-3,11-azatricyclo[6.3.0.0^2,6]undecane [Compound 14a]

Compound: 3-Hydroxy-3,11-oxatricyclo[6.3.0.0^2,6]undecane [Compound 11]
Dose-response profile / effect on K+-induced Ca2+ influx [1]: potentiating effect

Compound: O=C1CCC2CC3CCC(=O)C3C12 (stereo not drawn) [Compound 10, Tricyclo[6.3.0.0^2,6]undecane-3,11-dione]
Dose-response profile / effect on K+-induced Ca2+ influx [1]: slight potentiating effect but no antagonistic activity

Compound: OC12C3C4CC5C6C4C1C6C(C53)N2CCc1ccccc1 (stereo not drawn) [Compound 8b, N-Phenylethyl-3-hydroxy-4-azahexacyclo[5.4.1.0^2,6.0^3,10 0^5,9.0^8,11]dodecane]
Attenuation of H2O2-induced LDH release ([2]; compound at 1 and 10 μM): significant attenuation of LDH release | LDH release by compound alone (inherent toxicity) [2]: some LDH release | Protection in the cell viability assay (Trypan blue) ([3]; 200 μM H2O2, concentration not stated): able to offer protection | Change in cell viability by compound alone (Trypan blue exclusion) ([3]; absence of H2O2, 10 and 100 μM, versus untreated cells): slight decrease in cell viability | IC50 [1]: 8 µM

Compound: CCCCCCCN1C2C3C4CC5C6C4C2C6C1(O)C53 (stereo not drawn) [Compound 8c, N-Heptyl-3-hydroxy-4-azahexacyclo[5.4.1.0^2,6.0^3,10.0^5,9. 0^8,11]dodecane]
IC50 [1]: 7 µM

Compound: c1ccc(CNC23OC4C5C6CC(C7C6C4C72)C53)cc1 (stereo not drawn) [Compound 7a, 8-benzylamino-8,11-oxapentacyclo[5.4.0.0^2,6.0^3,10.0^5,9]undecane]
Attenuation of H2O2-induced LDH release ([2]; compound at 1, 10 and 100 μM): significant attenuation of LDH release | LDH release by compound alone (inherent toxicity) [2]: some LDH release | Reduction of H2O2-induced toxicity (Trypan blue exclusion) ([3]; 200 μM H2O2, compound at 1, 10 and 100 μM, p<0.05): significant reduction | IC50 [1]: 86 µM

Compound: O=C1C2C3CC4C2C(=O)C2C1C3C42 (stereo not drawn) [Compound 4, Pentacyclo[5.4.0.0^2,6.0^3,10.0^5,9]undecane-8,11-dione]
Dose-response profile / effect on K+-induced Ca2+ influx [1]: no activity

Compound: c1cc(CN2C3CCC4CC5CCC2C5C43)ccn1 (stereo not drawn) [Compound 14f, N-(Pyridin-4-ylmethyl)-3,11-azatricyclo[6.3.0.0^2,6]-undecane]
IC50 [1]: 5 µM
